{"source": "patent US20020137891A1", "about": "“Protein scaffold and its use to multimerise monomeric polypeptides” (priority 1999, published 2002)", "key": {"[1]": {"test_system": "mutant Huntingdon exon 1-expressing PC12 and SH-SY5Y cells", "test": "Inclusion formation and cell death in mutant Huntingdon exon 1-expressing cells on overexpression of chaperones", "assay_type": "cell-based", "source_text": "These phenomena have been studied by transiently transfecting part of Huntingdon exon 1 in COS-7, PC12, and SH-SY5Y cells. Inclusion formation was not seen with constructs expressing 23 glutamines but was repeat length and time dependent for mutant constructs with 43-74 repeats. HSP70, HSP40, the 20S proteasome and ubiquitin colocalized with inclusions. […] Thus, inclusion formation may be enhanced in polyglutamine diseases, if the pathological process results in proteasome inhibition or a heat-shock response. […] To our knowledge, this is the first report of an HSP increasing aggregation of an abnormally folded protein in mammalian cells and expands the current understanding of the roles of HDJ-2yHSDJ in protein folding (See Wyttenbach, A. et al. (2000) Proc. Natl. Acad. Sci. USA 97, 2899-2903).\nWe have tested MC72 in the same system."}, "bacteriophage λ (b2cI)": {"test_system": "bacteriophage λ (b2cI)", "test": "Growth (plaque formation) of bacteriophage λ at 30° C. in transformed wild-type and groEL mutant strains", "assay_type": "cell-based, E. coli", "source_text": "Bacterial and bacteriophage strains. The E. coli strains used in this study were: C41(DE3), a mutant of BL21(DE3) capable of expressing toxic genes (Miroux, B. & Walker, J. E. (1996) J. Mol. Biol. 260, 289-298); SV2 (B178groEL44), SV3 (B178groEL59) and SV6 (B178groEL673): isogenic strains carrying temperature-sensitive alleles of groEL; SV1(=B178) (Georgopoulos, C., Hendrix, R. W., Casjens, S. R. & Kaiser, A. D. (1973) J. Mol. Biol. 76, 45-60), AI90 (ΔgroEL::kan^R) [pBAD-EL] (Ivic, A., Olden, D., Wallington, E. J. & Lund, P. A. (1997) Gene 194, 1-8), and TG1 (Gibson, T. J. (1984) Ph.D. thesis, University of Cambridge, U.K). Bacteriophage λb2cI (Zeilstra-Ryalls, J., Fayet, O., Baird, L. & Georgopoulos, C. (1993) J. Bacteriol. 175, 1134-1143) was used according to standard methods (Arber, W., Enquist, L., Hohn, B., Murray, N. E. & Murray, K. (1983) in Lambda II., ed. R. W. Hendrix, J. W. r., F. W. Stahl and R. A. Weisberg (Cold Spring Harbor Laboratory, Cold Spring Harbor, N.Y.), pp. 433-466); plaque formation was assayed at 30° C. T4D0, a derivative of bacteriophage T4 (Zeilstra-Ryalls, J., Fayet, O., Baird, L. & Georgopoulos, C. (1993) J. Bacteriol. 175, 1134-1143), was used according to standard methods (Karam, J. D. (1994) Molecular biology of bacteriophage T4. (American Society for Microbiology, Washington, D.C.)); plaque formation was assayed at 37° C.\nBacteriophage λ requires the chaperonins GroES and GroEL for protein folding during morphogenesis; bacteriophage T4 requires GroEL and Gp31, the latter being encoded by the bacteriophage genome (Zeilstra-Ryalls, J., Fayet, O. & Georgopoulos, C. (1991) Annu. Rev. Microbiol. 45, 301-325). Nine groE alleles which fail to support λ growth have been sequenced (Zeilstra-Ryalls, J., Fayet, O., Baird, L. & Georgopoulos, C. (1993) J. Bacteriol. 175, 1134-1143). We examined the ability of MC7, over-expressed from the constitutive tet promoter on a high-copy number vector (see FIG. 2), to complement three mutant groEL alleles for plaque formation by λ (b2cI) at 30° C. (Table 3) and T4 at 37° C. (Table 4)."}, "[2]": {"test_system": "Lorist6 (bacteriophage λ origin vector)", "test": "Effect of over-expression on Lorist6 replication", "assay_type": "cell-based, E. coli", "settings": "over-expression from pJC vectors in TG1 or SV1", "procedure": "Effect on Lorist6 replication of over-expressing of MC7. The effect of over-expressing Gp31 proteins from pJC vector series on the replication of the bacteriophage λ origin vector, Lorist6 (Gibson, T. J., Rosenthal, A. & Waterston, R. H. (1987) Gene 53, 283-286) in TG1 (Gibson, T. J. (1984) Ph.D. thesis, University of Cambridge, U.K) or SV1 (Georgopoulos, C., Hendrix, R. W., Casjens, S. R. & Kaiser, A. D. (1973) J. Mol. Biol. 76, 45-60) cells was determined essentially as described (Chatellier, J., Hill, F., Lund, P. & Fersht, A. R. (1998) Proc. Natl. Acad. Sci. U.S.A. 95, 9861-9866)."}, "[3]": {"target": "T1, pig heart mitochondrial malate dehydrogenase (mtMDH) (Sus scrofa, UniProt P00346)", "T1 construct": "pig heart mitochondrial malate dehydrogenase (mtMDH; Boehringer-Mannheim); purchased Boehringer-Mannheim; host or cells: pig heart", "T1 sequence (P00346 25-338)": "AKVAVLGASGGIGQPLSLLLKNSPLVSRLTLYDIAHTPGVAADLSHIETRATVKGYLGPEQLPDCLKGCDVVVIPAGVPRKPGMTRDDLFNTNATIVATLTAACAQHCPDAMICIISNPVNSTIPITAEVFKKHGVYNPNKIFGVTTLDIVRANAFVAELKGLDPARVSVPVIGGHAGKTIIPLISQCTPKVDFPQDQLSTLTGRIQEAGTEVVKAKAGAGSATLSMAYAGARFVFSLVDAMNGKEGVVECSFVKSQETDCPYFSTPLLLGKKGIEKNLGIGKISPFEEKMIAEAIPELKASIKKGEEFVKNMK", "test": "In vitro refolding and aggregation protection of heat- and dithiothreitol-denatured mtMDH", "assay_type": "biochemical", "procedure": "In vitro refolding experiments. Refolding assays of pig heart mitochondrial malate dehydrogenase (mtMDH; Boehringer-Mannheim) and aggregation protection were carried out essentially as described (Peres Ben-Zvi, A. P., Chatellier, J., Fersht, A. R. & Goloubinoff, P. (1998) Proc. Natl. Acad. Sci. U.S.A. 95, 15275-15280). The concentrations of MC7 used were between 8-16 μM (reporter to protomer)."}}}
{"substance": "GroEL (1-548): E. coli molecular chaperone, 14 subunits of 57.5 kD in two seven membered rings [reference compound]", "values": [{"measurement": "cell death", "setting": "[1]", "value": "had no effect"}, {"measurement": "inclusion formation", "setting": "[1]", "value": "had no effect"}, {"measurement": "Complementation of groEL mutant strains for bacteriophage λ growth (in words)", "setting": "bacteriophage λ (b2cI)", "value": "weak complementation of λ growth in SV2 (groEL44) and SV3 (groEL59; Ser201→Phe)"}, {"measurement": "Effect of over-expression on plaque formation by bacteriophage λ in SV1 (groE^+) (in words)", "setting": "bacteriophage λ (b2cI)", "value": "suffices to inhibit λ growth"}, {"measurement": "Growth of bacteriophage λ, SV1 (groEL^+)", "setting": "bacteriophage λ (b2cI); pJC plasmid", "value": "− (no visible plaques (<10^−4))"}, {"measurement": "Growth of bacteriophage λ, SV2 groEL44", "setting": "bacteriophage λ (b2cI); pJC plasmid", "value": "+ (10-fold fewer plaques, or plaque size reduced relative to wild-type groEL^+ strain, or both)"}, {"measurement": "Growth of bacteriophage λ, SV3 GroEL59", "setting": "bacteriophage λ (b2cI); pJC plasmid", "value": "++ (5-fold fewer plaques relative to wild-type groEL^+ strain, or both)"}, {"measurement": "Growth of bacteriophage λ, SV6 groEL673", "setting": "bacteriophage λ (b2cI); pJC plasmid", "value": "+/− (10^2-fold fewer plaques and plaque size reduced relative to wild-type groEL^+ strain)"}, {"measurement": "Replication of the Lorist6 plasmid", "setting": "[2]", "value": "inhibit the replication of the Lorist6 plasmid"}, {"measurement": "yield of refolded mtMDH", "setting": "[3]; after 120 min, FIG. 7c", "value": 6, "unit": "nM"}, {"measurement": "rate of refolding of denatured mtMDH", "setting": "[3]; reactivation at 25° C., chaperone alone, FIG. 7b", "value": 0.04, "unit": "nM/min"}]}
